Laboratory results as given in a compilation of properties of binary mixtures (doi:10.1021/acs.jced.2c00096).

Assay: xn = mol fraction of the nth substance listed
Conditions: 100 kPa

CCCC[N+]1(C)CCCC1.O=S(=O)([O-])C(F)(F)F + O
Conditions | electrical conductivity [S/m] | viscosity [mPa·s]
288.15 K, x2 = 0.1203 | 0.173 | 196
288.15 K, x2 = 0.1956 | 0.21 | 151.5
288.15 K, x2 = 0.4836 | 0.458 | 56.8
288.15 K, x2 = 0.5819 | 0.603 | 40.25
288.15 K, x2 = 0.6794 | 0.78 | 27.75
288.15 K, x2 = 0.8612 | 1.43 | 10.36
288.15 K, x2 = 0.95 | 1.75 | 3.99
293.15 K, x2 = 0.0597 | 0.188 | 181.1
293.15 K, x2 = 0.1203 | 0.22 | 148.6
293.15 K, x2 = 0.1956 | 0.266 | 116.3
293.15 K, x2 = 0.3766 | 0.426 | 64.1
293.15 K, x2 = 0.4836 | 0.563 | 45
293.15 K, x2 = 0.5819 | 0.732 | 32.19
293.15 K, x2 = 0.6794 | 0.954 | 22.37
293.15 K, x2 = 0.7673 | 1.26 | 15.18
293.15 K, x2 = 0.95 | 2.07 | 3.36
298.15 K, x2 = 0.1203 | 0.276 | 114.9
298.15 K, x2 = 0.1956 | 0.334 | 91
298.15 K, x2 = 0.3197 | 0.453 | 61.1
298.15 K, x2 = 0.4836 | 0.68 | 36.38
298.15 K, x2 = 0.5819 | 0.886 | 26.17
298.15 K, x2 = 0.8612 | 2.04 | 7.14
303.15 K, x2 = 0.0597 | 0.299 | 108.4
303.15 K, x2 = 0.1203 | 0.343 | 90.6
303.15 K, x2 = 0.1956 | 0.406 | 72.5
303.15 K, x2 = 0.3197 | 0.545 | 49.4
303.15 K, x2 = 0.4836 | 0.808 | 29.8
303.15 K, x2 = 0.5819 | 1.04 | 21.59
303.15 K, x2 = 0.6794 | 1.37 | 15.22
303.15 K, x2 = 0.7673 | 1.79 | 10.5
303.15 K, x2 = 0.8612 | 2.38 | 6.05
308.15 K, x2 = 0.0597 | 0.364 | 86.1
308.15 K, x2 = 0.1956 | 0.488 | 58.6
308.15 K, x2 = 0.3197 | 0.647 | 40.48
308.15 K, x2 = 0.4836 | 0.953 | 24.76
308.15 K, x2 = 0.5819 | 1.23 | 18.04
308.15 K, x2 = 0.6794 | 1.6 | 12.8
308.15 K, x2 = 0.7673 | 2.08 | 8.89
308.15 K, x2 = 0.8612 | 2.77 | 5.14
308.15 K, x2 = 0.95 | 3.16 | 2.17
313.15 K, x2 = 0.0597 | 0.435 | 69.4
313.15 K, x2 = 0.1203 | 0.497 | 58.9
313.15 K, x2 = 0.3197 | 0.76 | 33.61
313.15 K, x2 = 0.3766 | 0.866 | 28.63
313.15 K, x2 = 0.4836 | 1.11 | 20.81
313.15 K, x2 = 0.6794 | 1.86 | 10.89
313.15 K, x2 = 0.7673 | 2.4 | 7.6
313.15 K, x2 = 0.8612 | 3.17 | 4.47
313.15 K, x2 = 0.95 | 3.56 | 1.91
318.15 K, x2 = 0.0597 | 0.52 | 56.7
318.15 K, x2 = 0.1956 | 0.68 | 39.82
318.15 K, x2 = 0.3766 | 1.01 | 24.15
318.15 K, x2 = 0.4836 | 1.28 | 17.69
318.15 K, x2 = 0.5819 | 1.63 | 13.03
318.15 K, x2 = 0.6794 | 2.14 | 9.36
318.15 K, x2 = 0.7673 | 2.75 | 6.57
318.15 K, x2 = 0.8612 | 3.61 | 3.9
318.15 K, x2 = 0.95 | 4 | 1.7
323.15 K, x2 = 0.1203 | 0.686 | 40.38
323.15 K, x2 = 0.3197 | 1.03 | 23.95
323.15 K, x2 = 0.3766 | 1.16 | 20.59
323.15 K, x2 = 0.4836 | 1.47 | 15.18
323.15 K, x2 = 0.7673 | 3.11 | 5.73
323.15 K, x2 = 0.8612 | 4.06 | 3.43
328.15 K, x2 = 0.0597 | 0.713 | 39.32
328.15 K, x2 = 0.1203 | 0.796 | 34.03
328.15 K, x2 = 0.1956 | 0.921 | 28.34
328.15 K, x2 = 0.3197 | 1.17 | 20.52
328.15 K, x2 = 0.4836 | 1.67 | 13.15
328.15 K, x2 = 0.5819 | 2.12 | 9.79
328.15 K, x2 = 0.6794 | 2.76 | 7.1
328.15 K, x2 = 0.7673 | 3.5 | 5.04
328.15 K, x2 = 0.8612 | 4.55 | 3.04
328.15 K, x2 = 0.95 | 4.93 | 1.37
333.15 K, x2 = 0.0597 | 0.83 | 33.27
333.15 K, x2 = 0.1203 | 0.918 | 28.94
333.15 K, x2 = 0.1956 | 1.05 | 24.27
333.15 K, x2 = 0.3197 | 1.33 | 17.75
333.15 K, x2 = 0.3766 | 1.48 | 15.39
333.15 K, x2 = 0.4836 | 1.88 | 11.49
333.15 K, x2 = 0.6794 | 3.09 | 6.26
333.15 K, x2 = 0.7673 | 3.91 | 4.46
333.15 K, x2 = 0.8612 | 5.05 | 2.71
333.15 K, x2 = 0.95 | 5.42 | 1.24
